Assay results from the supplement of paper PMC10307832.

Experiments:
[1] = compound: CC1=CC(=CC=C1)NC2=NC(=CS2)C3=CC=NC=C3; experiment: relative viability (nuclei count vs DMSO), 5 days (fraction); higher = more cells survive
Method in brief: (§1)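 On vehicle-anchored 1536-well plates, lung cancer cell lines held overnight at 37 °C were pinned with five library-drug doses (not always all listed) spaced by √10. With no medium change over 5 days, they were then fixed, permeabilised and Hoechst-stained in one step and imaged at 4×. MetaXpress counted nuclei, and viability is the median across plates of treated-well over vehicle-well nuclei. Acceptance needed control CV below 25% and at least one doubling.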

Masitinib = compound: Cc1ccc(NC(=O)c2ccc(CN3CCN(C)CC3)cc2)cc1Nc1nc(-c2cccnc2)cs1 [Masitinib]; experiment: as above
Method in brief: as §1

Cell Line | relative viability ([1]; 0.08 µM) | relative viability ([1]; 0.253 µM) | relative viability ([1]; 0.8 µM) | relative viability ([1]; 2.53 µM) | relative viability ([1]; 8 µM) | relative viability (Masitinib; 0.01 µM) | relative viability (Masitinib; 0.03162 µM) | relative viability (Masitinib; 0.1 µM) | relative viability (Masitinib; 0.3162 µM) | relative viability (Masitinib; 1 µM)
201T | 0.939 | 0.959 | 0.959 | 0.74 | 0.712 | 0.79 | 1.03 | 0.825 | 0.783 | 0.976
A549 | 0.888 | 0.871 | 0.943 | 0.929 | 0.921 | 0.906 | 0.953 | 1.09 | 1.03 | 0.856
A-427 | 0.864 | 0.951 | 0.968 | 0.859 | 0.878 |  | 0.951 | 0.69 | 1.08 | 0.931
ABC-1 | 0.795 | 0.786 | 1.08 | 0.786 | 0.41 | 0.857 | 0.902 | 1.08 | 0.853 | 0.93
BEN | 0.928 | 0.95 | 0.913 | 0.897 | 1.03 | 1.06 | 0.845 | 1.16 | 0.953 | 0.975
CAL-12T | 0.867 | 0.928 | 1.06 | 0.854 | 0.911 | 0.922 | 0.953 | 0.99 | 0.97 | 0.967
COR-L23 | 0.981 | 0.986 | 0.926 | 0.877 | 0.989 | 1.02 | 0.969 | 1.06 | 0.984 | 0.981
COR-L 105 | 0.742 | 0.901 | 0.818 | 0.776 | 0.667 | 0.944 | 0.894 | 0.976 | 0.856 | 0.897
Calu-6 | 0.894 | 0.936 | 0.873 | 0.943 | 0.87 | 0.98 | 1.04 | 1.06 | 0.977 | 0.985
ChaGo-K-1 | 0.997 | 1.01 | 0.973 | 1.03 | 0.814 | 1.17 | 0.988 | 1.12 | 1.1 | 0.984
EBC-1 | 0.788 | 0.882 | 0.865 | 0.823 | 0.685 | 0.988 | 0.946 | 1.2 | 0.984 | 0.834
EKVX | 0.884 | 0.933 | 0.795 | 0.89 | 0.82 | 0.627 | 0.86 | 0.805 | 0.717 | 0.927
EMC-BAC-2 | 0.834 | 0.712 | 1.01 | 0.838 | 0.885 | 0.78 | 0.784 | 0.893 | 0.937 | 0.927
EPLC-272H | 0.856 | 0.793 | 0.813 | 0.732 | 0.958 | 0.887 | 0.788 | 0.962 | 0.866 | 0.815
H3255 | 0.916 | 0.931 | 0.984 | 0.934 | 0.903 | 0.743 | 0.986 | 0.766 | 0.784 | 0.906
HARA | 0.741 | 0.975 | 0.815 | 0.685 | 0.735 | 0.844 | 0.874 | 0.772 | 0.742 | 0.909
HCC-15 | 0.916 | 0.936 | 1.02 | 0.915 | 0.807 | 0.774 | 0.983 | 0.836 | 0.962 | 0.959
HCC-44 | 0.862 | 0.795 | 0.843 | 0.797 | 0.859 | 0.816 | 1.01 | 0.978 | 0.871 | 0.961
HCC-78 | 0.781 | 0.789 | 0.811 | 0.817 | 0.971 | 0.891 | 0.814 | 0.956 | 0.789 | 0.902
HCC-366 | 0.979 | 0.956 | 1.03 | 1.02 | 0.931 | 0.729 | 1.14 | 0.75 | 0.977 | 0.994
HCC-827 | 0.963 | 0.982 | 0.951 | 1 | 0.7 | 0.868 | 1.03 | 0.888 | 0.959 | 1.01
HOP-62 | 0.952 | 0.972 | 1.08 | 0.997 | 0.966 | 0.954 | 0.995 | 0.962 | 1.08 | 1.01
IA-LM | 0.856 | 0.772 | 0.9 | 0.76 | 0.677 | 0.885 | 0.901 | 1.01 | 0.977 | 0.982
LC-2-ad | 0.877 | 0.916 | 0.967 | 0.839 | 0.785 | 0.806 | 1.01 | 0.951 | 0.966 | 0.944
LCLC-97TM1 | 0.763 | 0.818 | 0.96 | 0.927 | 0.974 | 0.803 | 1.03 | 0.869 | 1.02 | 0.928
LCLC-103H | 0.896 | 0.886 | 0.913 | 0.968 | 0.712 | 0.741 | 1.01 | 0.757 | 0.816 | 0.899
LK-2 | 0.816 | 0.98 | 1.27 | 0.793 | 1.41 | 1.09 | 0.89 | 1.23 | 1.19 | 1.08
LOU-NH91 | 0.826 | 0.849 | 0.943 | 0.905 | 0.851 | 0.839 | 0.888 | 0.925 | 0.838 | 0.904
LU99A | 0.877 | 0.917 | 0.972 | 0.997 | 0.956 | 1.03 | 0.94 | 1.09 | 1.06 | 0.916
